Measurements reported in US9295754B2, “Noggin inhibitory compositions for ossification and methods related thereto” (Emory University, priority 2011, dated 2016).
Numbering of substitutions follows the chain as printed.

How the values were obtained:
[1] = tested on: fetal rat calvarial osteoblast primary cell cultures; experiment: BMP-induced bone nodules in fetal rat calvarial osteoblast primary cell cultures; format: cell-based; conditions: FIG. 6
[2] = tested on: bone growth; experiment: Collagen disc implantation with Noggin-blockers and BMP-2 in rat ectopic model; format: in vivo, Harlan athymic rats; conditions: for Average / Results: 100ul, collagen carrier, chest implant, 4 weeks
Excerpt: Harlan athymic rats about 5-6 weeks of age were chest implanted with a collegan disc and doses of N50 in combination with BMP-2. After 4 weeks the rats were sacrificed and evaluated for bone growth.

[3] = biological target: T1, Noggin (Homo sapiens, UniProt Q13253); experiment: in vitro cell-based screening assays (luciferase reporter and ALP assays in C2C12 cells); conditions: BMP-2 +/- Noggin, FIG. 2-5
T1 construct: host or cells: added to mouse C2C12 cells
T1 sequence (Q13253 28-232): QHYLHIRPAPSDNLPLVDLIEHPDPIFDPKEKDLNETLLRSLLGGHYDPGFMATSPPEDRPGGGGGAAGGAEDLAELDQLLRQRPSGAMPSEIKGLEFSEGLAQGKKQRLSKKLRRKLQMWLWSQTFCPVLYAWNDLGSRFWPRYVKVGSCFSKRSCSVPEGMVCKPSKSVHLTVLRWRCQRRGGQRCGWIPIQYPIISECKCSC
Procedure: The known crystals structures of complexes of BMP-2/BMPR-IA, BMP7/Noggin and BMP-2/BMPR-IA/ActR-II and BMPR-II monomer structures were analyzed. Using these structures ternary complexes of BMP-2/BMPR-IA/BMPR-II and BMP-2/Noggin (from BMP7/Noggin) were modeled. Solvent accessibility of complexes and the monomers were computed to identify exact binding regions and the individual residues involved in binding. The entire 430 Å^2 surface area of Noggin that binds to BMP-2 and thus block binding of BMP to BMPR-IA and BMPR-II binding regions were analyzed. Complementary regions in BMP were also evaluated in extensive virtual screenings using LUDI docking procedures using CAP commercially available molecular databases.
Mouse C2C12 cells and Dulbecco's modified Eagle's medium (DMEM) were purchased from ATCC (Manassas, Va.). […] When the flasks reached 80% confluence, the cells were trypsinized and seeded in triplicate at 200,000 cells/well in a 6-well plate for quantitative real-time RT-PCR and alkaline phosphatase (ALP) assays or at 50,000 cells/well in a 12-well plate for the dual-luciferase reporter assay.
The C2C12 cells were plated at 200,000 cells/well in 6-well plates and grown overnight in DMEM containing 10% FBS. […] The ALP activity was measured in triplicate using an ALP assay kit (Sigma-Aldrich, St. Louis, Mo.) in microtiter plates. […]

[4] = biological target: T2, endogenous Noggin (Mus musculus, UniProt P97466); experiment: BMP-induced ALP activity in C2C12 cells without exogenously added Noggin; format: cell-based; conditions: absence of exogenously added Noggin, FIG. 8
T2 construct: in the absence of exogenously added Noggin in C2C12 cells; endogenous in cells; host or cells: mouse C2C12 cells (ATCC)
T2 sequence (P97466 28-232): T1 sequence (Q13253 28-232) with A67P
Procedure: Mouse C2C12 cells and Dulbecco's modified Eagle's medium (DMEM) were purchased from ATCC (Manassas, Va.). The non-heat inactivated fetal bovine serum (FBS) was purchased from HyClone Laboratories, Inc. (Logan, Utah). The C2C12 cells at passages 4 to 7 were subcultured in T-75 cm2 flasks in DMEM supplemented with 10% FBS at 37° C. in 5% CO2 with humidification. When the flasks reached 80% confluence, the cells were trypsinized and seeded in triplicate at 200,000 cells/well in a 6-well plate for quantitative real-time RT-PCR and alkaline phosphatase (ALP) assays or at 50,000 cells/well in a 12-well plate for the dual-luciferase reporter assay.
The C2C12 cells were plated at 200,000 cells/well in 6-well plates and grown overnight in DMEM containing 10% FBS. On day 2, the culture medium was replaced with DMEM containing 2% FBS and the cells were treated with 100 ng/ml of BMP-2, +/−various concentrations of the Noggin-interacting compound, and +/−100 ng/ml of Noggin for 72 hours. […] The ALP activity was measured in triplicate using an ALP assay kit (Sigma-Aldrich, St. Louis, Mo.) in microtiter plates. The protein amount was determined with Bio-Rad protein assay reagent (Bio-Rad, Hercules, Calif.) using bovine serum albumin (BSA) as a standard. […]

Row | SMILES | BMP-induced bone nodules [1] | Average ([2]; N50 4 mM + BMP-2 1.5 ug) | Results ([2]; N50 4 mM + BMP-2 1.5 ug) | Average ([2]; N50 4 mM + BMP-2 5 ug) | Results ([2]; N50 4 mM + BMP-2 5 ug) | Average ([2]; N50 8 mM + BMP-2 1.5 ug) | Results ([2]; N50 8 mM + BMP-2 1.5 ug) | Average ([2]; N50 8 mM + BMP-2 5 ug) | Results ([2]; N50 8 mM + BMP-2 5 ug) | Average ([2]; N50 12 mM + BMP-2 1.5 ug) | Results ([2]; N50 12 mM + BMP-2 1.5 ug) | Average ([2]; N50 12 mM + BMP-2 5 ug) | Results ([2]; N50 12 mM + BMP-2 5 ug) | bone growth ([2]; N50 in combination with BMP-2, after 4 weeks, certain doses) | Noggin blocking [3] | function of endogenous Noggin / BMP-induced ALP activity [4]
1 | N#CC(=Cc1cccc(Cl)c1)c1ccccn1 (racemic) [N50, 3-(3-chlorophenyl)-2-(pyridin-2-yl)acrylonitrile] | potentiation of BMP-induced bone nodules | 3 | Bone made (4 of 4) | 4.25 | Bone made (4 of 4) | 1.75 | Bone made (2 of 4) | 3.25 | Bone made (3 of 4) | 3.5 | Bone made (4 of 4) | 4.75 | Bone made (4 of 4) | Certain doses showed improvement | confirmed Noggin blockers | 
2 | Cc1cc(C)nc(NC(=O)c2sc3ccccc3c2Cl)c1 [N2, 3-chloro-N-(4,6-dimethylpyridin-2-yl)benzo[b]thiophene-2-carboxamide] |  |  |  |  |  |  |  |  |  |  |  |  |  |  | confirmed Noggin blockers | 
3 | Cc1ccc(C(C#N)=Cc2cccc([N+](=O)[O-])c2)cc1 [N50-083, 3-(3-nitrophenyl)-2-(p-tolyl)acrylonitrile] |  |  |  |  |  |  |  |  |  |  |  |  |  |  |  | blocks function of endogenous Noggin by potentiating BMP-induced ALP activity
